In ChEMBL document CHEMBL1201862, “PubChem BioAssay data set” (2004):
Active and inactive are the calls of the source.

Experiments:
[1] = viability of PTEN-deleted HCT116 cells – cell-based, HCT116 PTEN knockout, dose response (AID 1047); type: functional;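 note: HCT116 colon tumor cells with PTEN knocked out; cells exposed to compound for 60 hours before readout; potency for loss of cell viability measured by luminescence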
[2] = viability of HCT116 lacking mutant beta-catenin – cell-based, human colon tumor, dose response (AID 1045); type: functional;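 note: HCT116 colon tumor cells with beta catenin knocked out; cells exposed to compound for 60 hours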
[3] = biological target: Luciferin 4-monooxygenase (Photinus pyralis, UniProt P08659); experiment: inhibition of purified Photinus pyralis luciferase – biochemical, luminescence, dose response (AID 1891)
[4] = Luminescence Cell-Based Dose Confirmation HTS to Identify Inhibitors of Platelet Dense Granule Release. [Related pubchem assays: 1663 (Primary HTS), 1678 (Summary of Project)]; type: functional
[5] = viability of uninfected HEp-2 cells – cell-based, HTS, cytotoxicity control for RSV inhibitor project, dose response (AID 2410); type: functional; settings: human respiratory syncytial virus
[6] = test system: Streptococcus sp. 'group A'; experiment: Streptococcus pyogenes SK(-)GAS viability under kanamycin – luminescence, BacTiterGlo, confirmation, counter-screen for streptokinase expression inhibitor project, dose response (AID 1900); type: functional, organism-based
Streptokinase A = biological target: T1, Streptokinase A (Streptococcus pyogenes serotype M1, UniProt P10520); experiment: viability-normalized secreted streptokinase activity reduction – plasminogen activation absorbance, OD405, dose response (AID 1914); type: functional, Streptococcus pyogenes M1 GAS;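 note: secreted streptokinase activity via plasminogen activation per viability signal from cell pellet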
T1 sequence (P10520 whole entry): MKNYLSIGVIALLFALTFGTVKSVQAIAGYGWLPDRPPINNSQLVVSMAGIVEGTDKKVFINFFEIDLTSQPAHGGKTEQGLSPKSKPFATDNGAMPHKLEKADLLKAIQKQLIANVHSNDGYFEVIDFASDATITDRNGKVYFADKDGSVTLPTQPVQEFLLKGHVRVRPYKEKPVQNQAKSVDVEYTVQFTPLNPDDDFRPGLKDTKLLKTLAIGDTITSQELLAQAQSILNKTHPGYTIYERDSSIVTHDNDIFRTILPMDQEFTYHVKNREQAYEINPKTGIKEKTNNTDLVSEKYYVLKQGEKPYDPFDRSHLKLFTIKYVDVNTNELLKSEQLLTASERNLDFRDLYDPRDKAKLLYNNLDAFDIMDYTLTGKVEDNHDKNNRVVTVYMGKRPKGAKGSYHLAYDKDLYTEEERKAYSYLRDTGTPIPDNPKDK

Streptococcus = experiment: GAS UMAA2166 growth inhibition – luminescence, BacTiterGlo, counter-screen for streptokinase expression inhibitor project, dose response (AID 1915); type: functional, organism-based;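 note: potency for reduction of bacterial viability or growth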
[7] = Luminescence Cell-Based Dose Retest to Confirm Inhibitors of Cancer Stem Cells. [Related pubchem assays (depositor defined):AID2717, AID2721]; type: functional, Homo sapiens; settings: Homo sapiens
Cytochrome P450 3A4 = Cytochrome P450 3A4 (Homo sapiens, UniProt P08684);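 note: CYP3A4 tested as one member of a cytochrome P450 panel screen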
Cytochrome P450 2C19 = Cytochrome P450 2C19 (Homo sapiens, UniProt P33261); experiment: Cytochrome panel assay with activity outcomes. Panel member name: p450-cyp2c19 Compounds with AC50 equal or less than 10 uM are considered active; type: functional
INS1 = experiment: INS-1E survival protection against cytokine death – cell-based, luminescence, retest, dose response (AID 449756); type: functional; settings: Rattus norvegicus;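 note: cell death triggered by IL-1 beta plus TNF-alpha plus IFN-gamma mixture; protective hits raise ATP signal compared with cytokine alone wells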
[8] = Trypanosoma cruzi growth suppression in host cells – NIH3T3 host cells, beta-gal luminescence, confirmation (AID 2044); type: functional, cell-based;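 note: intracellular parasites grown in NIH/3T3 mouse fibroblasts as host cells; luminescent beta-galactosidase reporter signal from transgenic T. cruzi replicating inside host cells; inhibitors lower the luminescence signal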
[9] = NIH3T3 cell viability loss – ATP luminescence, mouse fibroblasts, counter-screen, dose response (AID 2010); type: functional, cell-based;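 note: cells exposed to compound for about 90 hours before reading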

Chain of Cytochrome P450 3A4 (P08684 whole entry): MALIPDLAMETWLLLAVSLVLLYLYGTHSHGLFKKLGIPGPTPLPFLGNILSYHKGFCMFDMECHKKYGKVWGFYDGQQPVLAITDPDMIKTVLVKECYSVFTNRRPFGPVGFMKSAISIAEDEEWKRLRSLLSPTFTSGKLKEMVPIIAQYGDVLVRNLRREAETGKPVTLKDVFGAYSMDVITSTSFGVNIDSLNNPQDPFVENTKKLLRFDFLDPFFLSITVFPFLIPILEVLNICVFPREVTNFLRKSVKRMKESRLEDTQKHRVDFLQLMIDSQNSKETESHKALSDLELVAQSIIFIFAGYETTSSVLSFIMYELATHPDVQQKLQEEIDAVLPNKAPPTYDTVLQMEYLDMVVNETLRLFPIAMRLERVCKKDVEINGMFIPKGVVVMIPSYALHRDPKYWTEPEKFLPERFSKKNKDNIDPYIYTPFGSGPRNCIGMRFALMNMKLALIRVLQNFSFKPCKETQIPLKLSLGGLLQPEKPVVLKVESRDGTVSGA
Chain of Cytochrome P450 2C19 (P33261 whole entry): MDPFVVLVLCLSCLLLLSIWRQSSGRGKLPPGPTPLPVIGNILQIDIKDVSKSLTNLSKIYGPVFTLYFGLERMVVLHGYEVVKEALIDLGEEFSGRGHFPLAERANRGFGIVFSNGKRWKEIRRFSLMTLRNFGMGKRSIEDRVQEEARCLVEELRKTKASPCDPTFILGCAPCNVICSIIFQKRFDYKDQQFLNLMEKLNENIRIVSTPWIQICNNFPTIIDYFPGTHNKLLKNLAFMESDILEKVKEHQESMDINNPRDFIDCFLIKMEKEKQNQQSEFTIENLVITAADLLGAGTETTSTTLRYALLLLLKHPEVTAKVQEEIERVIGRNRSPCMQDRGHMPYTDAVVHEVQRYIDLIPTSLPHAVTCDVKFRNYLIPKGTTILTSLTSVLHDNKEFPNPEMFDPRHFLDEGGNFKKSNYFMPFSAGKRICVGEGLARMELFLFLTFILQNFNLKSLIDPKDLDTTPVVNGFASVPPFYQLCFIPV
Chain of Luciferin 4-monooxygenase (P08659 whole entry): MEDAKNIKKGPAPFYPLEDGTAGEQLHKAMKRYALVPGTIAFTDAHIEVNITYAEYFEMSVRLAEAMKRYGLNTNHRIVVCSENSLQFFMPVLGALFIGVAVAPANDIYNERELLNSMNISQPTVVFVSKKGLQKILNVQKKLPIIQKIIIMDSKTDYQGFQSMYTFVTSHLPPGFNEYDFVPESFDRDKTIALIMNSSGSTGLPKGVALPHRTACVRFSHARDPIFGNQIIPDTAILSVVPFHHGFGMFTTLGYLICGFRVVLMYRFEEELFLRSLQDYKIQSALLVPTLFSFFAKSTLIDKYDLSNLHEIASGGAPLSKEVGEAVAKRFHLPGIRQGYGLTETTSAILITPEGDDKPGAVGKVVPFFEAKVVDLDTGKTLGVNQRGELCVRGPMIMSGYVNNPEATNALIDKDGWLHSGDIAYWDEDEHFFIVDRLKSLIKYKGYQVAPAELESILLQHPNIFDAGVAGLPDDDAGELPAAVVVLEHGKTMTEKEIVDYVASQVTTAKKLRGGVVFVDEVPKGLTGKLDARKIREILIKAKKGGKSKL

C=CCNC(=O)/C(C#N)=C/c1c(N(Cc2ccccc2)Cc2ccccc2)nc2ccccn2c1=O
EC50 [1]: 26 µM (active)
EC50 [2]: 25.3 µM (active)

CC1CC(OC(=O)CN2CCCCC2)CC(C)(C)C1 (configuration not stated)
EC50 [3]: > 112 µM (not active)
EC50 [4]: > 112 µM (not active)

OC(COc1cccc2ccccc12)CN1CCN(c2ccc(Cl)cc2)CC1 (configuration not stated)
CC50 [5]: 12 µM (active)
EC50 [6]: 19.7 µM (active)
EC50 (Streptokinase A): 31.1 µM (active)
EC50 (Streptococcus): 34.3 µM (active)
AC50 [7]: 6.37 µM (active)

COc1cc(NC(=S)N2CCN(C/C=C/c3ccccc3)CC2)cc(OC)c1
EC50 [3]: > 112 µM (not active)
EC50 [4]: > 112 µM (not active)

COCCn1c(=O)c(-c2cc(F)cc(F)c2)nc2cncnc21
AC50 (Cytochrome P450 3A4): 15.8 µM (inconclusive)

C=C(CC1([C@@H](NP(=O)(c2ccccc2)c2ccccc2)[C@H]2C[C@@H]2CCCC)CC1)c1ccccc1
EC50 [6]: 2.27 µM (active)
EC50 (Streptokinase A): > 150 µM (not active)
EC50 (Streptococcus): 4.4 µM (active)
AC50 [7]: 3.22 µM (active)
AC50 (Cytochrome P450 2C19; read-out: AC50): 7.94 µM (inconclusive)

CC(C)(C)NC(=O)C(c1ccccn1)N(C(=O)C1CSC(=O)C1)c1ccc(F)cc1 (configuration not stated)
AC50 (Cytochrome P450 3A4): 0.794 µM (inconclusive)

Fc1ccc2nc(Nc3nc4c(F)cc(F)cc4s3)sc2c1
AC50 (INS1): 7.02 µM (active)

c1ccc2[nH]c(-c3nc4ccccc4[nH]3)nc2c1
EC50 [3]: 2.11 µM (active)
EC50 [4]: 3.25 µM (active)

COc1ccccc1C(=O)COC(=O)/C=C/c1ccccc1
EC50 [3]: > 112 µM (not active)
EC50 [4]: > 112 µM (not active)

COc1c(/C=N/Nc2nc(N3CCCCC3)nc(N3CCCCC3)n2)cccc1[N+](=O)[O-]
AC50 (Cytochrome P450 2C19; read-out: AC50): 7.94 µM (inconclusive)

O=C1COc2ccc(C(=O)COC(=O)c3cc(S(=O)(=O)N4CCOCC4)ccc3F)cc2N1
EC50 [3]: > 112 µM (not active)
EC50 [4]: 22.9 µM (active)

CC(Nc1nc(N2CCCC2)nc2ccccc12)c1ccccc1 (configuration not stated)
EC50 [8]: 0.568 µM (active)
EC50 [1]: 5.65 µM (active)
EC50 [9]: 55.9 µM (active)
EC50 [2]: 4.31 µM (active)

Cc1ccc(NS(=O)(=O)c2cccc(C(=O)N3CCCCCCC3)c2)cc1
EC50 [3]: > 112 µM (not active)
EC50 [4]: > 112 µM (not active)

NC(=O)c1c(NC(=O)c2ccc(S(=O)(=O)N(CCCl)CCCl)cc2)sc2c1CCCCC2
EC50 [1]: 15 µM (active)
EC50 [2]: 20.5 µM (active)

Nc1c(C(=O)NCCN2CCOCC2)c2nc3ccccc3nc2n1CCc1ccccc1
EC50 [1]: 15.4 µM (active)
EC50 [2]: 17.9 µM (active)

O=C(N/N=C\c1ccc(CNS(=O)(=O)c2ccc(Cl)cc2)o1)C(=O)Nc1ccc(Oc2ccccc2)cc1
EC50 [1]: 9.47 µM (active)
EC50 [2]: 11.1 µM (active)

COCC(=O)N/N=C/c1ccc(Sc2nc3ccccc3s2)o1
AC50 (Cytochrome P450 3A4): 22.4 µM (inconclusive)

CCc1ccc2c(c1)C1(NN=C(c3ccc(C)cc3)S1)C(=O)N2 (configuration not stated)
EC50 [1]: 4.58 µM (active)
EC50 [2]: 2.81 µM (active)

Oc1nc2cc(NC(S)=Nc3ccccc3Cl)ccc2[nH]1
EC50 [4]: > 112 µM (not active)

CCCNC(=O)OC[C@@H]1O[C@H](CCON=C(C)C)C=C[C@@H]1Oc1ccc(OC)cc1
AC50 (Cytochrome P450 3A4): 3.98 µM (inconclusive)

COc1ccc(CNCc2cc3c(C(C)(C)C)nn(-c4ccccc4)c3nc2O)cc1
EC50 [1]: 10.3 µM (active)
EC50 [2]: 14.2 µM (active)

CCN=C(S)NNC(=O)c1cc(-c2cccc(OC)c2)nc2ccccc12
EC50 [3]: 0.259 µM (active)
EC50 [4]: 7.86 µM (active)

Cc1cc(C(C)(C)C)c(OCCCN2CCOCC2)c(C(C)(C)C)c1
AC50 (Cytochrome P450 3A4): 3.16 µM (inconclusive)

Cc1c(C(=O)Nc2ccc(-c3nnc4n3CCCCC4)cc2)oc2c1ccc1ccccc12
EC50 [8]: 1.45 µM (active)
EC50 [1]: 19.8 µM (active)
EC50 [9]: > 60 µM (not active)
EC50 [2]: 20.9 µM (active)
AC50 [7]: 2.48 µM (active)

CCN(CC)c1ccc(C(=O)N/N=C/c2ccccc2OC(F)F)cc1
AC50 (INS1): 5.97 µM (active)

CCOC(=O)C1=C(c2ccccc2)N=c2s/c(=C\c3cccc(O)c3)c(=O)n2C1c1cccs1 (configuration not stated)
EC50 [1]: 15 µM (active)
EC50 [2]: 15.1 µM (active)
AC50 [7]: 2.94 µM (active)

COc1ccc2[nH]cc(C=O)c2c1
AC50 (Cytochrome P450 2C19; read-out: AC50): 28.2 µM (inconclusive)

CC[C@]1(c2ccccc2OC)ON(c2ccccc2C(F)(F)F)C1=O
AC50 (INS1): 1.75 µM (active)

C=CCNC(=O)c1ccc2nc(-c3ccccc3)c(-c3ccccc3)nc2c1
AC50 (Cytochrome P450 2C19; read-out: AC50): 39.8 µM (inconclusive)

O=C(/C=C/c1ccc(-c2ccccc2)cc1)NCc1cccnc1
AC50 (INS1): 7.49 µM (active)

O=[N+]([O-])c1cccc(/C=C/c2nc(/C=N/c3ccc4ccccc4c3)c(O)o2)c1
EC50 [1]: 12.8 µM (active)
EC50 [2]: 18 µM (active)

COc1ccc(Cl)cc1NC(=O)c1cc(S(=O)(=O)N2CCCC2)cn1C
EC50 [3]: > 112 µM (not active)
EC50 [4]: > 112 µM (not active)

COC(=O)c1cc(=O)n(Cc2ccco2)/c(=N/c2ccc(F)c(Cl)c2)s1
EC50 [1]: 8.9 µM (active)
EC50 [2]: 7.55 µM (active)

CN(C)CCNc1ccccn1
AC50 (Cytochrome P450 2C19): inconclusive

O=C(c1ccco1)N1CCC2(CCCN(c3ccccc3)C2)CC1
AC50 (Cytochrome P450 3A4): 15.8 µM (inconclusive)

Cc1ccc2c(c1)C1CCCC3C1N2CC(=O)N3Cc1ccccc1 (configuration not stated)
EC50 [1]: 33.9 µM (active)
EC50 [2]: 62.7 µM (active)

Cc1nc2ccccc2n1CC(=O)N/N=C\c1ccccn1
AC50 (Cytochrome P450 2C19): inconclusive

COc1cc(C2c3c(-c4cc(Cl)c(C)cc4O)n[nH]c3C(=O)N2Cc2cccnc2)ccc1O (configuration not stated)
EC50 [3]: > 112 µM (not active)
EC50 [4]: 85 µM (active)

[O-][n+]1c2c([n+]([O-])c3cc(F)c(F)cc31)CCCC2
AC50 (Cytochrome P450 2C19; read-out: AC50): 1 µM (inconclusive)

COc1ccc(/C(C)=N/Nc2nc(C)cc(-c3ccccc3)n2)cc1
AC50 (INS1): 0.703 µM (active)

COCCNC(=O)c1cn(Cc2c(F)cccc2Cl)nn1
EC50 [3]: > 112 µM (not active)
EC50 [4]: > 112 µM (not active)

CCOC(=O)C1=NN(C(=O)Nc2ccc(OC)cc2)C2C(=O)N(c3cccc(C(F)(F)F)c3)C(=O)C12 (configuration not stated)
EC50 [3]: > 112 µM (not active)
EC50 [4]: 27.2 µM (active)

CC(C)c1cccc2nc3c(c(C(C)(C)C)c12)Cn1c-3cccc1=O
AC50 (Cytochrome P450 2C19; read-out: AC50): 25.1 µM (inconclusive)
AC50 (Cytochrome P450 3A4): 5.01 µM (inconclusive)

COc1ccc(OC)c2sc(NC(=O)CCS(=O)(=O)c3ccccc3)nc12
EC50 [1]: 81.3 µM (active)
EC50 [2]: 62 µM (active)

COC(=O)c1ccc2c(=O)n(-c3ccccc3)c(SCN3C(=O)c4ccccc4C3=O)nc2c1
AC50 (INS1): 6.09 µM (active)

Cc1cc(NC(=O)Cn2nc(C)c([N+](=O)[O-])c2C)no1
EC50 [3]: > 112 µM (not active)
EC50 [4]: > 112 µM (not active)
